Measured values published in patent US20140037659A1 (Yissum Research Development Company of the Hebrew …, priority 2011, published 2014).

Key:
MDSCs [1] = assay: 5FU treatment of BCG-treated mice displaying chronic inflammation; assay type: in vivo
Method: Normal C57B116 mice repeatedly exposed to heat-killed BCG were used as the mouse model for chronic inflammation^1. BCG was administered by three subcutaneous injections at 1 wk intervals, 100 μg per animal/dose; the first two doses were administrated with IFA (Incomplete Freund's adjuvant), and subsequent injections included heat-killed BCG in PBS. Unless stated otherwise, splenocytes were collected 2-3 days after the last injection. Control mice remained untreated. For experiments with chicken OVA (Sigma) as antigen, the same protocol was maintained: For a Th1 response BCG was administered as above but with OVA. For a Th2 response, the first and second injections were with 100 μg OVA adsorbed to Al(OH)3 (alum; Thermo), and the third injection was with 100 μg OVA in PBS. Experimental groups included at least three mice, and each experiment was repeated at least three times.
BCG-treated mice received three i.p. injections of 5-fluorouracil (5FU); The first 5FU injection (1 mg/mouse) was given at the day of the second BCG treatment and the second 5FU injection was given four days later. The third 5FU injection (0.5 mg/mouse) was given at the day of the third BCG treatment.
All the antibodies were purchased from Biolegend.

MDSCs [2] = conditions: recently demonstrated, reference 30; cited from earlier work
[3] = target: T1, SNX9 (sorting nexin 9 protein), endogenous in EL4 T cell line (Mus musculus, UniProt Q91VH2 1-595); assay: immunoprecipitation of EL4 lysate with anti-CD3δ, immunoblot for SNX9
T1 construct: Endogenous protein in a Triton X-100 lysate of EL4 T cells; also called sorting nexin-9 [Mus musculus]

[4] = splenic cells of BCG+5FU treated mice vs BCG treated mice, immunoblotting, FIG. 14A

T1 sequence (Q91VH2 whole entry): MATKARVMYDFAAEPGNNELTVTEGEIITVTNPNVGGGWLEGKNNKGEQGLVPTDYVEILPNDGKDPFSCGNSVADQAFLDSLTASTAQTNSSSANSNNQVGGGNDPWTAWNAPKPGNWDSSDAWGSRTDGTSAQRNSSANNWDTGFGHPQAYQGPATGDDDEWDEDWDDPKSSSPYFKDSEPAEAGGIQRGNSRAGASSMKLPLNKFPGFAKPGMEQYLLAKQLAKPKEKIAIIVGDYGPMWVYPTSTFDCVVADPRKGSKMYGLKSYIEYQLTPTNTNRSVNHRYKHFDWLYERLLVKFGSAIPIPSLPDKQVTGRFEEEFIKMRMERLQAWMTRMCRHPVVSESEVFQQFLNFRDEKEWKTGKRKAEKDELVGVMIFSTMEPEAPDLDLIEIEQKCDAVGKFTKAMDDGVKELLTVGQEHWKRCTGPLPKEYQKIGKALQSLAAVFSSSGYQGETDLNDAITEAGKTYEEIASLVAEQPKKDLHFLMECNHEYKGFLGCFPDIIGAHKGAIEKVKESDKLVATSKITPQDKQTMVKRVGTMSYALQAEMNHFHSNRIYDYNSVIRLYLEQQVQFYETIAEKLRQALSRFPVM

Row | Molecule | MDSCs levels (Gr1+Mac1+ double-positive cells) (MDSCs [1]; FACS of cells from BCG+5FU treated mice, FIG. 14B, C) | SNX9 expression levels (MDSCs [1]; [4]) | ζ chain expression levels (MDSCs [1]; [4]) | effect on MDSCs (MDSCs [2]) | binding result [3]
1 | O=c1[nH]cc(F)c(=O)[nH]1 [5FU, 5-fluorouracil] | Eliminates MDSCs | recovery | recovery | cytotoxic effect on MDSCs | –
2 | CD3δ of EL4 T cell line (receptor, UniProt P04235 22-173, looked up, Immunoprecipitated from EL4 lysate with anti-CD3δ antibody) FKIQVTEYEDKVFVTCNTSVMHLDGTVEGWFAKNKTLNLGKGVLDPRGIYLCNGTEQLAKVVSSVQVHYRMCQNCVELDSGTMAGVIFIDLIATLLLALGVYCFAGHETGRPSGAAEVQALLKNEQLYQPLRDREDTQYSRLGGNWPRNKKS | – | – | – | – | no binding
